# Reference: patent US20100249018A1, “COMPOSITION AND METHOD FOR PREVENTING AND TREATING IMMUNE-RELATED DISORDER” (priority 2007, published 2010)
# Square brackets hold non-standard residues; d marks the D form. Ends that are not written are not given here. * marks the point of attachment. Boc = CC(C)(C)OC(=O)*; For = O=C*
# How the values were obtained:
# CLP mice = assay: Survival in CLP (cecal ligation and puncture) sepsis mouse model; type: in vivo; details: for therapeutic effect of FPR ligands and scrambled peptide / therapeutic effect of WKYMVm analogs on experimental sepsis: 4 mg/kg subcutaneous four times at 2, 14, 26, 38 h post-CLP; for therapeutic effect of FPR ligands and scrambled peptide: FIG. 1g; for reversal of the therapeutic effects of WKYMVm by antagonist pre-treatment: antagonist 4 mg/kg subcutaneous 2 h before CLP and 2 h before each WKYMVm (4 mg/kg) treatment, FIG. 1d; for therapeutic effect of WKYMVm analogs on experimental sepsis: ICR mice, survival up to 10 days, FIG. 1h
# Procedure: Male WT ICR mice and IL-12R 2-, IFN-γ-deficient, and WT C57BL/6 mice (kindly donated from Y. C. Sung, POSTECH, Republic of Korea) were used for experimental sepsis model, as previously described (Yan, J. J., Nat. Med. 10:161-167, 2004). All experiments involving animals adhered to the guidelines and received the approval of the Institutional Review Committee for Animal Care and Use at Dong-A University. For CLP, mice were anesthetized with pentothal sodium (50 mg/kg, intraperitoneal) and a small abdominal midline incision was made to expose the cecum. The cecum was then ligated below the ileocecal valve, punctured twice through both surfaces (or once for the measurement of cytokine production) using a 22-gauge needle and the abdomen was closed. Sham CLP mice were subjected to the same procedure, but without ligation and puncture of the cecum. Survival was monitored once daily for 10 days.
# To investigate whether WKYMVm has a therapeutic effect on experimental sepsis, CLP was performed on albino ICR (Institute of Cancer Research) mice, and their survival was monitored for up to 10 days. […] Various doses of WKYMVm were injected subcutaneously four times into CLP mice at 2, 14, 26, and 38 h post-CLP.
# To examine the effect of WKYMVm treatment, mice were injected subcutaneously with various doses of the peptide or with PBS as a negative control beginning 2 h after CLP. […] Various doses of WKYMVm were injected subcutaneously four times into CLP mice at […] post-CLP.
# CLP mice were given zero, one, two, three, four, or five injections of WKYMVm (4 mg/kg, subcutaneous).
# To evaluate the roles of FPR1 and FPR2, an FPR1 antagonist [N-t-butoxycarbonyl-Phe-Leu-Phe-Leu-Phe (Boc-PLPLP) (SEQ ID NO:12)] (La, M., et al., FASEB J. 15:2247-2256) and an FPR2 antagonist [Trp-Arg-Trp-Trp-Trp-Trp; WRWWWW (WRW^4) (SEQ ID NO:13)] (Bae, Y. S et al., J. Immunol. 173:607-614.) were administered prior to WKYMVm treatment in CLP mice. […] Boc-PLPLP (4 mg/kg), WRW^4 (4 mg/kg), or Boc-PLPLP (4 mg/kg)+WRW^4 (4 mg/kg) was injected subcutaneously 2 h before CLP. After CLP, Boc-PLPLP (4 mg/kg) or WRW^4 (4 mg/kg) was injected subcutaneously four times at 12-h intervals 2 h before WKYMVm treatment (4 mg/kg, subcutaneous).
# Statistical analysis. Survival data were analyzed using the log-rank test. All other data were evaluated using ANOVA. The Bonferroni test was used for post hoc comparisons and statistical significance was set a priori at P<0.05.
# FPR-family agonists (WKYMVm (SEQ ID NO:1), WKYMVM(SEQ ID NO:14), fMLF(SEQ ID NO:15) and MMK-1 (SEQ ID NO:16)) or scrambled peptide (VWMYmK: SEQ ID NO: 17) (4 mg/kg, respectively) were injected subcutaneously four times to CLP mice at 2, 14, 26, and 38 h post-CLP.
# To investigate whether the analogs of WKYMVm(SEQ ID NO:1), WRYMVm(SEQ ID NO: 2), WKWMVm(SEQ ID NO: 3), WKRMVm(SEQ ID NO: 4), WKFMVm(SEQ ID NO: 5), WHYMVm(SEQ ID NO: 6), WKYMYm(SEQ ID NO: 7), WKYMFm(SEQ ID NO: 8), WKYMWm(SEQ ID NO: 9), WKYMVV(SEQ ID NO: 10) and WKEMVm(SEQ ID NO: 11) have therapeutic effects on experimental sepsis, CLP was performed on albino ICR (Institute of Cancer Research) mice, and their survival was monitored for up to 10 days. […] 4 mg/kg of WKYMVm or each analog of WKYMVm was injected subcutaneously four times into CLP mice at 2, 14, 26, and 38 h post-CLP (FIG. 1h).
# To investigate the role of Th1 cytokines (IL-12 and IFN-γ) on WKYMVm-induced survival effect after sepsis, the CLP model was applied to IL-12Rβ2- and IFN-γ-deficient mice (C57BL/6 background). […] WT C57BL/6 or IL-12Rβ2-deficient mice were subcutaneously injected with WKYMVm (4 mg/kg) or PBS four times to CLP mice 2, 14, 26, and 38 h post-CLP. In FIG. 5d, WT C57BL/6 or IFN-γ-deficient mice were subcutaneously injected with WKYMVm (4 mg/kg) or PBS four times to CLP mice 2, 14, 26, and 38 h post-CLP. Data are expressed as the mean±standard error. *P<0.05; **P<0.01 compared with vehicle (c, d). n=10-16 mice per group (c,d) […]
# [1] = system: splenocytes of Th1 mouse model; assay: Splenocyte proliferation assay, Th1 mouse model (OVA+LPS); type: in vivo; details: OVA+LPS immunized mice; 72 h incubation with OVA; compared to sham-treated mice; FIG. 4e
# Procedure: To generate the Th1 and Th2 mouse models (FIG. 4b), 6-week-old C57BL/6 WT mice were twice immunized intraperitoneally with 75 μg of OVA+10 μg of LPS or 2 mg of alum on days 0 and 7 and then challenged intraperitoneally with 50 μg of OVA on days 14, 15, and 16. Isolated splenocytes were subjected to a cell proliferation assay with and without OVA incubation. Briefly, splenocytes were harvested in RPMI 1640 media and incubated (2×10^5 cells/well) in 96-well flat-bottom plates at 37° C. for 96 h in medium alone or with 5, 50 or 500 μg OVA/ml. The example measured cellular thymidine incorporation following a 72 h culture period with 1 μCi [^3H]thymidine.
# Because IL-2 promotes T-cell proliferation (Benczik, M., et al., Immunol. Invest. 33:109-142), the effect of FPR activation by WKYMVm on Th1 and Th2 cell proliferation was evaluated using inert antigens. WKYMVm (4 mg/kg) was injected subcutaneously four times into CLP mice 2, 14, 26, and 38 h post-CLP. Separate groups of animals were given sham, CLP+PBS, or CLP+WKYMVm treatment. Data are expressed as the mean±standard error (n=8). *P<0.05; **P<0.01 compared with CLP+PBS. […]
# Protocol for the Th1 and Th2 mice (FIG. 4d) was described below. […] Data are expressed as the mean±standard error (n=5 for e, f), and * indicates P<0.05 compared to OVA+PBS group; ** indicates P<0.05 versus the other groups. […]
# [2] = system: E. coli ingested by mouse neutrophils; assay: Neutrophil bactericidal activity in vitro; type: cell-based; details: antagonist 10 μM added 30 min prior to WKYMVm (100 nM); FIG. 3b
# Procedure: To determine whether WKYMVm treatment increases bactericidal activity in vitro, mouse neutrophils were allowed to ingest E. coli for 1 h and were then stimulated with 0.1-1000 nM WKYMVm for 20 min. […] Adherent neutrophils were incubated with 10^6 opsonized E. coli for 1 h, and stimulated with vehicle (PBS) or WKYMVm (0.1, 1, 10, 100, and 1000 nM) for 1 h.
# Because FPR1 and FPR2 are expressed in neutrophils (data not shown), this experiment investigated the roles of FPR1-1 and FPR2-mediated pathways in WKYMVm-induced bactericidal activity. […] Mouse neutrophils were isolated from peripheral blood using a Histopaque-1077 solution (Sigma) as described previously (Bae, Y. S., et al., J. Immunol. 171:6807-6813, 2003). Boc-PLPLP (10 μM), WRW^4 (10 μM), or Boc-PLPLP (10 μM)+WRW^4 (10 μM) was added 30 min prior to the addition of WKYMVm (100 nM). The number of viable bacteria in the neutrophils was then determined.
# Neutrophil bactericidal activity was measured according to the method of Yan, J. J., et al., Nat. Med. 10:161-167, 2004. […] After washing away the unengulfed E. coli, the number of viable bacteria in the neutrophils was determined before and after incubation with several concentrations of WKYMVm or vehicle for 1 h. The percentage of bacteria killed was calculated as 100×(1−number of CFU after WKYMVm stimulation/number of CFU before WKYMVm stimulation). […]
# mouse neutrophils = assay: H2O2 generation in mouse neutrophils in vitro; type: cell-based; details: antagonist 10 μM prior to WKYMVm (100 nM); FIG. 3d
# Procedure: Because the bactericidal effect of phagocytes is related with H2O2 production (Hampton, M. B., et al., Blood. 92:3007-3017), the effect of WKYMVm on H2O2 generation in mouse neutrophils was evaluated. […] Mouse neutrophils were stimulated with vehicle (PBS) or WKYMVm (1-1000 nM) for 15 min. Neutrophils isolated from sham, CLP−, or CLP+WKYMVm-treated mice were stimulated with 100 nM PMA for 1 h. Freshly isolated neutrophils from normal mice were stimulated with various concentrations of WKYMVm for 10 min in the presence of cytochalasin B (5 μM).
# To investigate the role of FPR1 and FPR2, neutrophils were preincubated with Boc-PLPLP (10 μM), WRW^4 (10 μM), or vehicle (DMSO) for 30 minutes prior to adding WKYMVm (100 nM) for 10 min. H2O2 in the supernatant was measured using an H2O2 assay kit (Molecular Probes).
# Boc-PLPLP (10 μM), WRW^4 (10 μM), or Boc-PLPLP (10 μM)+WRW^4 (10 μM) was added […] prior to the addition of WKYMVm (100 nM).
substance,measurement,setting,value
LESIFRSLLFRVM (MMK-1 peptide) [FPR-family agonist],therapeutic effect of FPR ligands and scrambled peptide,CLP mice,lower than that of WKYMVm
"N-formyl-Met-Leu-Phe (For-Met-Leu-Phe) [fMLF, FPR-family agonist]",therapeutic effect of FPR ligands and scrambled peptide,CLP mice,lower than that of WKYMVm
"N-t-butoxycarbonyl-Phe-Leu-Phe-Leu-Phe (Boc-FLFLF) [Boc-PLPLP, FPR1 antagonist]","splenocyte proliferation, Th1 mouse model",[1],inhibited
same,reversal of the therapeutic effects of WKYMVm by antagonist pre-treatment,CLP mice,only partly reversed
same,WKYMVm-induced bactericidal activity after antagonist pre-treatment,[2],significantly inhibited bactericidal activity
same,reversal of WKYMVm-induced H2O2 generation by antagonist pre-treatment,mouse neutrophils,partly reversed
Val-Trp-Met-Tyr-D-Met-Lys (VWMY[dM]K) [VWMYmK],therapeutic effect of FPR ligands and scrambled peptide,CLP mice,no therapeutic effect
WHYMVm: analog of WKYMVm (WHYMV[dM]),therapeutic effect of WKYMVm analogs on experimental sepsis,CLP mice,no therapeutic effects
WKEMVm: analog of WKYMVm (WKEMV[dM]),therapeutic effect of WKYMVm analogs on experimental sepsis,CLP mice,no therapeutic effects
WKFMVm: analog of WKYMVm (WKFMV[dM]),therapeutic effect of WKYMVm analogs on experimental sepsis,CLP mice,no therapeutic effects
WKRMVm: analog of WKYMVm (WKRMV[dM]),therapeutic effect of WKYMVm analogs on experimental sepsis,CLP mice,no therapeutic effects
WKWMVm: analog of WKYMVm (WKWMV[dM]),therapeutic effect of WKYMVm analogs on experimental sepsis,CLP mice,no therapeutic effects
WKYMFm: analog of WKYMVm (WKYMF[dM]),therapeutic effect of WKYMVm analogs on experimental sepsis,CLP mice,no therapeutic effects
WKYMVV: analog of WKYMVm (WKYMVV),therapeutic effect of WKYMVm analogs on experimental sepsis,CLP mice,no therapeutic effects
WKYMWm: analog of WKYMVm (WKYMW[dM]),therapeutic effect of WKYMVm analogs on experimental sepsis,CLP mice,no therapeutic effects
WKYMYm: analog of WKYMVm (WKYMY[dM]),therapeutic effect of WKYMVm analogs on experimental sepsis,CLP mice,no therapeutic effects
WRWWWW [WRW^4],"splenocyte proliferation, Th1 mouse model",[1],inhibited
same,reversal of the therapeutic effects of WKYMVm by antagonist pre-treatment,CLP mice,completely reversed
same,WKYMVm-induced bactericidal activity after antagonist pre-treatment,[2],significantly inhibited bactericidal activity
same,reversal of WKYMVm-induced H2O2 generation by antagonist pre-treatment,mouse neutrophils,partly reversed
WRYMVm: analog of WKYMVm (WRYMV[dM]),therapeutic effect of WKYMVm analogs on experimental sepsis,CLP mice,no therapeutic effects
